According to patent publication US20220218852A1, “NOVEL RADIOLABELLED CXCR4-TARGETING COMPOUNDS FOR DIAGNOSIS AND THERAPY” (PROVINCIAL HEALTH SERVICES AUTHORITY, priority 2019, published 2022):
Positions of bridges follow the written chain, without caps; N, C: chain ends. Non-standard residues stand in square brackets, D forms with d. Residues, ends and D or L forms follow the SMILES beside them. Groups on a side chain read outwards from the residue. *: point of attachment. DOTA = O=C(O)CN1CCN(CC(=O)O)CCN(CC(=O)*)CCN(CC(=O)O)CC1; 2Nal = N[C@@H](Cc1ccc2ccccc2c1)C(=O)O; Lys(iPr) = CC(C)NCCCC[C@H](N)C(=O)O

Tested on: Z138 xenograft
Assay: Dosimetry, Human Extrapolated from Mouse Model, based on Z138 xenograft mice
Assay type: in vivo
Details: Lu-177, Z138 xenograft mice
Text: The multi-time-point organ uptake obtained from biodistribution data of ^177Lu-labeled analogs was decayed to their appropriate time-point, fitted to a mono-exponential or bi-exponential model (fit chosen based on R2 and residuals) in Python (version 3.7). The area under the curve was used to compute residence times which were multiplied by model organ mass for human (NURBS model) and mouse (25 g MOBY mouse phantom) for use in OLINDA/EXM software (Hermes Medical Solution; version 2.0) that calculated dosimetry for an average mouse (Stabin et al., J Nucl Med. 2005, 46:1023-1027; Keenan et al., J Nucl Med. 2010, 51:471-476) and extrapolated to an average human male (Segars et al., J Nucl Med. 2001, 42:7; Stabin et al., J Nucl Med. 2012, 53:1807-13).

For `CC(C)NCCCC[C@@H]1NC(=O)[C@H](Cc2ccc(O)cc2)NC(=O)[C@H](Cc2ccccc2)NC(=O)CC[C@H](C(=O)N[C@@H](CCCCNC(C)C)C(=O)N[C@@H](CCCCNC(=O)[C@H](CCC(=O)O)NC(=O)[C@H](CCC(=O)O)NC(=O)[C@H](CCC(=O)O)NC(=O)CN2CCN(CC(=O)O)CCN(CC(=O)O)CCN(CC(=O)O)CC2)C(N)=O)NC(=O)CNC(=O)[C@H](Cc2ccc3ccccc3c2)NC(=O)[C@@H](CCCNC(=N)N)NC1=O` [[^177Lu]Lu-BL02, metal not drawn] (FY[Lys(iPr)][dR][2Nal]G[dE][Lys(iPr)]K([Glu-Glu-Glu-DOTA])-NH2; lactam N-7), the “Absorbed Dose, Adrenals” value (Adrenals) was 0.00413 mGy/MBq, the “Absorbed Dose, Brain” value (Brain) was 4.5e−05 mGy/MBq and the “Absorbed Dose, Esophagus” value (Esophagus) was 0.000564 mGy/MBq. The “Absorbed Dose, Eyes” value (Eyes) was 0.000296 mGy/MBq, the “Absorbed Dose, Gallbladder Wall” value (Gallbladder Wall) was 0.000923 mGy/MBq and the “Absorbed Dose, Heart” value (Heart) was 0.00148 mGy/MBq. The “Absorbed Dose, Kidneys” value (Kidneys) was 0.0332 mGy/MBq, the “Absorbed Dose, Left colon” value (Left colon) was 0.000755 mGy/MBq and the “Absorbed Dose, Liver” value (Liver) was 0.0183 mGy/MBq. The “Absorbed Dose, Lungs” value (Lungs) was 0.0126 mGy/MBq, the “Absorbed Dose, Pancreas” value (Pancreas) was 0.00105 mGy/MBq and the “Absorbed Dose, Prostate” value (Prostate) was 0.000336 mGy/MBq. The “Absorbed Dose, Rectum” value (Rectum) was 0.000473 mGy/MBq, the “Absorbed Dose, Red Marrow” value (Red Marrow) was 0.000377 mGy/MBq and the “Absorbed Dose, Remainder of the Body” value (Remainder of the Body) was 0.00117 mGy/MBq. For the same compound, the “Absorbed Dose, Right colon” value (Right colon) was 0.000642 mGy/MBq, the “Absorbed Dose, Salivary Glands” value (Salivary Glands) was 0.00031 mGy/MBq and the “Absorbed Dose, Skeleton” value (Skeleton) was 0.000457 mGy/MBq. For the same compound, the “Absorbed Dose, Small Intestine” value (Small Intestine) was 0.000691 mGy/MBq, the “Absorbed Dose, Spleen” value (Spleen) was 0.0193 mGy/MBq and the “Absorbed Dose, Stomach Wall” value (Stomach Wall) was 0.000883 mGy/MBq. For the same compound, the “Absorbed Dose, Testes” value (Testes) was 0.00168 mGy/MBq, the “Absorbed Dose, Thymus” value (Thymus) was 0.000454 mGy/MBq and the “Absorbed Dose, Thyroid” value (Thyroid) was 0.000396 mGy/MBq. For the same compound, the “Absorbed Dose, Urin Blad” value (Urin Blad) was 0.00032 mGy/MBq.
